Reference: article PMC7922534, “Searching for Peptide Inhibitors of T Regulatory Cell Activity by Targeting Specific Domains of FOXP3 Transcription Factor” (Biomedicines, 2021)

Assays:
[1] = test system: murine CD4+CD25+ Treg cells; assay: In vitro Treg inhibition: anti-CD3 stimulated effector T cells co-cultured with Treg cells, tritiated thymidine incorporation; type: cell-based, mouse; details: peptide 50 μM, BALB/c Teff 10^5 + Treg 10^4 cells/well, 3 days, tritiated thymidine
Description: (§1) In vitro assays were carried out using (i) the Karpas 299 human cell line (ACC-31, DSMZ, Germany), derived from a human lymphoma with a regulatory T cell profile or (ii) using natural Treg cells isolated from the murine splenocytes. To evaluate the effect of peptides on the immunosuppressive activity of the Karpas 299 cell line, a “mixed lymphocyte reaction” (MLR) assay was carried out using peripheral blood mononuclear cells (PBMCs) from two donors (previously tested to induce a strong MLR reaction in co-culture) (1 × 10^5 cells/well per each PBMC) in the presence or absence of Karpas 299 (1 × 10^4 cells/well). Peptides were added at 50 μM to the co-cultures to evaluate their capacity to restore the production of interferon-gamma (IFN-γ) inhibited by Karpas 299. After 48 hours, the supernatants were extracted to measure interferon-gamma (IFN-γ) by means of a commercial ELISA (Pharmingen, San Diego, CA, US). In vitro assays for Treg inhibition using natural Treg cells: Murine CD4+CD25+ (Treg cells), and CD4+CD25-T-cells (effector T cells) were purified from murine spleen cells by using a murine regulatory T-cell isolation kit (Miltenyi Biotec, Bergisch Gladbach, Germany) according to the manufacturer’s instructions. The purity of the resulting T-cell populations was confirmed to be >95% by flow cytometry. Inhibition of murine T regulatory cell function was measured in an in vitro assay of T-cell stimulation. Effector T cells (10^5 cells/well) from BALB/c mice were stimulated in vitro with 2, 5 μg/mL of anti-mouse CD3 antibody (Pharmingen) in the presence/absence of purified Treg cells (10^4 cells/well) and the indicated peptides (50 μM). T-cell proliferation was measured 3 days later as previously described. Percentage of Treg inhibition was calculated using the following formula: % inhibition= 100*((cpm of Teff&Treg co-cultures in the presence of peptide - cpm of Teff&Treg co-cultures)/(cpm of Teff - cpm of Teff&Treg co-cultures)). The Institutional Review Board on Human Subjects (Clínica Universidad de Navarra, Ref 2016.118) approved this research, and informed consent was obtained from all blood donors.

Foxp3–NFAT interaction = assay: Co-immunoprecipitation and Western blot of Flag-Foxp3 and HA-NFAT in HEK293 cells; type: cell-based; details: HEK293 cells transfected with Flag-Foxp3 and HA-NFAT, peptide 100 μM; Figure 7
Description: HEK293 cells were cultured in Dulbecco modified Eagle medium (Invitrogen) supplemented with 8% heat-inactivated fetal calf serum (FCS), penicillin, and streptomycin (Invitrogen) at 37 °C and 5% CO2. Plasmids cells were grown to 50% confluence in 6-well plates (Nunc) and transfected with a mixture of 2 μg of DNA plasmids (1 μg of FLAG-FOXP3 (expressing Foxp3 linked to the DYKDDDDK peptide tag and 1 μg of HA-NFAT expressing NFAT linked to the […] peptide tag), kindly provided by Dr Paul, Coffer, Utrech, The Netherlands)) and 8 μL PEI (polyethylenimine) overnight; the next day, cells were treated with 393–403 L, 397–406 C, or an irrelevant peptide at 100 μM. Twenty four hour later, HEK 293 cells were lysed in NP40 lysis buffer (0.05 M Tris-HCl pH 7.5, 0.5% Nonidet P40, 0.15 M NaCl, 0.01 M EDTA) containing a HALT^TM protease inhibitor cocktail (ThermoScientific), and immunoprecipitation was performed utilizing anti-FLAG coupled beads (Sigma) during 2 h at 4 C. Beads were washed 3x in lysis buffer, boiled, and samples were separated by SDS-PAGE, electrophoretically transferred to polyvinylidene difluoride membrane (Millipore, Bedford, MA), and hybridized with antibodies as indicated. Immunocomplexes were detected using enhanced chemiluminescence (Biorad).

FOXP3/NFAT1 = assay: FOXP3/NFAT interaction by Alphascreen; type: binding; details: alpha screen; Figure 6C
Description: (§2) The screening of peptide binders to FOXP3 was performed by surface plasmon resonance (SPR) using a ProteOn XPR36 (Bio-Rad, Hercules CA, USA) optical biosensor. Recombinant protein FOXP3-6His produced and purified from E-coli was immobilized covalently onto a GLC sensor chip (Bio-Rad) using the coupling reagents sulfo-NHS (N-Hydroxysulfosuccinimide) and EDC (1-Ethyl-3-(3-dimethylaminopropyl) carbodiimide, (Bio-Rad) as previously described. Peptide solutions (10 μM) were injected by triplicate in running buffer (phosphate-buffered saline, 0.005% (v/v) Tween 20, pH 7.4) at a flow of 30 μL/min. The interspot signal (obtained in the chip surface not immobilized with protein) was used as reference. FOXP3/NFAT1 and FOXP3/AML1 interactions were analyzed by Alphascreen technology as previously described according to the manufacturer’s protocol (Perkin Elmer, Benelux). Reactions were performed in a 40 μL final volume in 96-well Optiwell microtiter plates (Perkin Elmer). […] FOXP3/AML1 interaction was measured following a similar protocol using FOXP3-GST and AML1-His proteins. Exposure of the reaction to direct light was avoided as much as possible, and the emission of light from the acceptor beads was measured in the EnVision plate reader after the indicated incubation period (Perkin Elmer, Benelux).

[2] = cited from earlier work
Text: (§3) We have also focused on the screening campaign of peptides derived from the FOXP3 FKH domain (Section 3.3). Although we identified several peptides encompassing the intermediate region of FKH with high capacity to bind to FOXP3, we focused on peptide […]-407, based on its ability to inhibit Treg activity in vitro.

FOXP3:NFAT = details: cited from earlier work
Text: as §3

hepatocellular carcinoma = details: murine model of hepatocellular carcinoma; cited from earlier work
Text: as §3

T-cells = details: cited from earlier work
Text: We focused on a peptide encompassing aminoacids 393–403, which correspond to a region implicated in FOXP/NFAT interaction, which is also key for Treg suppressive activity. FOXP3/NFAT interaction can regulate NFAT activity by (i) competing for binding to DNA [60, 61], (ii) by sequestering NFAT or other NFAT partners, or (iii) by forming a cooperative complex. The cooperative complex between FOXP3 and NFAT is required to repress the expression of the cytokine IL2, upregulate the expression of the Treg markers CTLA4 and CD25, and confer suppressor function. ...

FOXP3 homodimerization [3] = assay: FOXP3 dimerization by Alphascreen; type: binding; details: alpha screen
4T1-FOXP3 cells = assay: Proliferation of 4T1-Ctrl and 4T1-FOXP3 tumor cells in vitro; type: cell-based; details: peptide 50 μM, Figure 2C
Description: The cell line 4T1-FOXP3 expressing FOXP3 was generated. 4T1-WT cells were transfected with empty pcDNA3.1 or with pcDNA3.1 FOXP3, expressing FOXP3 gene and neomycin (which confers resistance to G418 antibiotic) to generate 4T1-Ctrl and 4T1-Foxp3 cells. Briefly, 8 × 10^5 cells were seeded in 6-well culture plates one day prior to transfection. The cultures were 60–80% confluent at the time of transfection. Cells were transfected with 5 ug plasmid DNA per well for 6 hours using lipofectimine 2000 transfection reagent (Invitrogen). After 48 hours, 0.3 mg/mL of G418 drug (GIBCO) was added to the culture during 14 days for the selection of resistant cells. These cells were used in vitro to measure the effect of peptides to overcome the proliferative capacity inhibited by FOXP3. In addition, 4T1-FOXP3 and 4T1-Ctrl cells were injected in vivo (10^5 cells/ mouse) subcutaneously or intravenously to compare their capacity to induce tumors and lung metastases. Murine Lewis lung carcinoma expressing OVA, LLCOVA were kindly provided by Dr. Daniel Ajona (CIMA). The murine colon adenocarcinoma cell line MC38, LLOOVA, 4T1-Ctrl, and 4T1-FOXP3 were cultured in mouse medium (RPMI 1640, 10% fetal calf serum (Sigma), 100 U/mL penicillin, 100 μg/mL streptomycin (Invitrogene), […] Gentamicin (Gibco), 2 mM L-Glutamine (Lifetechnologies), […] β-mercaptoethanol (Sigma), and fungizone (GIBCO). All cell lines were cultured at 37 °C in a humidified atmosphere with 6.5% CO2.

[4] = test system: Karpas 299 human cell line; assay: Mixed lymphocyte reaction with Karpas 299 Treg cell line, IFN-γ by ELISA; type: cell-based; details: MLR of PBMCs from two donors + Karpas 299, peptide 50 μM, 48 h
Description: as §1

FOXP3/AML1 [5] = details: cited from earlier work
Text: (§4) A P60 peptide optimization program including alanine scanning, the introduction of D-aminoacids, or head-to-tail cyclization allowed us to improve its stability and efficacy in vitro and in vivo [23].

FOXP3 homodimerization [6] = details: cited from earlier work
Text: as §4

[7] = cited from earlier work; remark: listed apart in the source
Description: (§5) The P60 peptide was able to improve the antitumor effect of other immunotherapeutic approaches constituting a potential candidate drug to inhibit Treg activity. An alanine scanning was conducted to identify key positions within the P60 sequence for FOXP3 binding P60. The introduct ...

FOXP3 = details: cited from earlier work
Description: as §5

Treg = details: cited from earlier work
Description: as §5

FOXP3/AML1 [8] = assay: FOXP3/AML1 interaction by Alphascreen; type: binding; details: Figure 3C
Description: as §2

Question: With “397–406 C: macrocycle consisting of a head-to-tail cyclization of peptide 397–406 (RVESEKGAVW; head-to-tail (backbone) cyclization)” as the substance, how does the “Treg inhibitory capacity in vitro (proliferation of effector T cells with anti-CD3 in presence of Treg)” value (“Treg inhibitory capacity in vitro” for short) [1] read?
Answer: The value was “improved the Treg inhibitory capacity”.

Question: What about the “interaction between Foxp3 and NFAT by co-immunoprecipitation” value (Foxp3–NFAT interaction) of the same substance?
Answer: The value was “able to reduce significantly the interaction”.

Question: What about the “disruption of FOXP3-NFAT heterodimerization” value (FOXP3/NFAT1) of the same substance?
Answer: The value was “retained the activity to impair Foxp3/NFAT interaction”.

Question: Which pharmacokinetics in vivo [2] does the source give for “KCFVRVESEKG [F393–403, truncated version of peptide F393–407]” here?
Answer: Its pharmacokinetics in vivo is “poor pharmacokinetics in vivo”.

Question: What about the “FOXP3:NFAT interaction” value (FOXP3:NFAT) of the same substance?
Answer: The value was “able to inhibit FOXP3:NFAT interaction”.

Question: What about the “antitumor activity of in vivo peptide administration” value (hepatocellular carcinoma) of the same substance?
Answer: The value was “had antitumor activity”.

Question: What about the “Treg inhibitory capacity in vitro” value [1] of the same substance?
Answer: The value was “able to inhibit Treg activity in vitro”.

Question: And the “interaction between Foxp3 and NFAT by co-immunoprecipitation” value (Foxp3–NFAT interaction)?
Answer: Its value is “able to reduce significantly the interaction”.

Question: What about the “T-cell proliferation and cytokine production in response to TCR stimulation” value (T-cells) of the same substance?
Answer: Its value is “enhanced T-cell proliferation and the production of cytokines IL-2, IFN-γ, or IL-17”.

Question: Which “Treg inhibitory capacity in vitro” value [1] does the source give for “KEKLSAMQAHLAGKM [p250–265, 15-mer peptide from the leuzin zipper domain of FOXP3]” here?
Answer: Its value is “able to fully restore the proliferative capacity of effector T-cells”.

Question: And the “inhibitory activity on FOXP3 homodimerization” value (FOXP3 homodimerization [3])?
Answer: Its value is “could not demonstrate an inhibitory activity”.

Question: Which “effect on tumor-suppressor activity of FOXP3 (proliferation of 4T1-FOXP3 versus 4T1-Ctrl cells)” value (4T1-FOXP3 cells) does the source give for RDFQSFRKMWPFFAM [p60] here?
Answer: The value was “does not alter the antitumor activity of FOXP3”.

Question: What about the “Treg inhibitory capacity (Karpas MLR assays)” value [4] of the same substance?
Answer: Its value is “potential Treg inhibitory capacity”.

Question: What about the FOXP3/AML1 interaction (FOXP3/AML1 [5]) of the same substance?
Answer: The FOXP3/AML1 interaction was “impairing”.

Question: What about the FOXP3 dimerization (FOXP3 homodimerization [6]) of the same substance?
Answer: Its FOXP3 dimerization is “impairing FOXP3 dimerization”.

Question: And the “ability to enter into the cells” value [7]?
Answer: The value was “able to enter into the cells”.

Question: And the FOXP3 nuclear translocation (FOXP3)?
Answer: Its FOXP3 nuclear translocation is “impair FOXP3 nuclear translocation”.

Question: What about the “Treg activity in vitro and in vivo” value (Treg) of the same substance?
Answer: The value was “inhibit Treg activity in vitro and in vivo”.

Question: Which “Treg inhibitory capacity in vitro” value [1] does the source give for SLFAVRRHLWGSHGN [F304–318] here?
Answer: Its value is “able to inhibit Treg activity”.

Question: And the “disruption of FOXP3/AML1 heterodimerization” value (FOXP3/AML1 [8])?
Answer: Its value is “able to impair FOXP3/AML1 heterodimerization”.
